# Reference: ChEMBL document CHEMBL3885861, “Open TG-GATES”
# Species on record: Rattus norvegicus
# Assay: Open TG-GATES - Regimen: Daily Repeat
# Type: toxicity, organism-based, Sprague-Dawley
# Design: regimen Daily Repeat, gender Male, age 6 weeks
# Conditions: in vivo, po, 0 mg/kg, route gavage, dose level Control; for APTT / Bas / Eos / Fbg / Hb / Ht / Lym / MCH / MCHC / MCV / Mono / Neu / PT / Plat / RBC / Ret / WBC: tissue Blood; for KIDNEY_L / KIDNEY_R / KIDNEY_TOTAL: tissue Kidney; for LIVER: tissue Liver; for A/G / ALP / ALT / AST / BUN / CRE / Ca / Cl / DBIL / GLC / IP / K / LDH / Na / PL / RALB / TBIL / TC / TG / TP / gamma-GTP: tissue Plasma
compound,measurement,setting,value
CNC(=C[N+](=O)[O-])NCCSCc1ccc(CN(C)C)o1 [RANITIDINE],TERMINAL_BW,"72 h, time 3 day",234.4 g
same,APTT,"72 h, time 3 day",18.8 s
same,Bas,"72 h, time 3 day",0%
same,Eos,"72 h, time 3 day",1%
same,Fbg,"72 h, time 3 day",243.4 mg/dL
same,Hb,"72 h, time 3 day",13.9 g/dL
same,Ht,"72 h, time 3 day",40.4%
same,Lym,"72 h, time 3 day",79.8%
same,MCH,"72 h, time 3 day",22.1 pg
same,MCHC,"72 h, time 3 day",34.4%
same,MCV,"72 h, time 3 day",64.2 fL
same,Mono,"72 h, time 3 day",2.6%
same,Neu,"72 h, time 3 day",15.2%
same,PT,"72 h, time 3 day",11.9 s
same,Plat,"72 h, time 3 day",112 x10_4/uL
same,RBC,"72 h, time 3 day",629.4 x10_4/ul
same,Ret,"72 h, time 3 day",5.1%
same,WBC,"72 h, time 3 day",95.3 x10_2/uL
same,KIDNEY_L,"72 h, time 3 day",1.1 g
same,KIDNEY_R,"72 h, time 3 day",1.1 g
same,KIDNEY_TOTAL,"72 h, time 3 day",2.2 g
same,LIVER,"72 h, time 3 day",11.5 g
same,A/G,"72 h, time 3 day",1.6
same,ALP,"72 h, time 3 day",924 IU/L
same,ALT,"72 h, time 3 day",35.2 IU/L
same,AST,"72 h, time 3 day",66.6 IU/L
same,BUN,"72 h, time 3 day",16.6 mg/dL
same,CRE,"72 h, time 3 day",0.4 mg/dL
same,Ca,"72 h, time 3 day",10.9 mg/dL
same,Cl,"72 h, time 3 day",103.8 meq/L
same,DBIL,"72 h, time 3 day",0.1 mg/dL
same,GLC,"72 h, time 3 day",198.8 mg/dL
same,IP,"72 h, time 3 day",7.4 mg/dL
same,K,"72 h, time 3 day",4.2 meq/L
same,LDH,"72 h, time 3 day",178.4 IU/L
same,Na,"72 h, time 3 day",140.4 meq/L
same,PL,"72 h, time 3 day",169.6 mg/dL
same,RALB,"72 h, time 3 day",3.5 g/dL
same,TBIL,"72 h, time 3 day",0.2 mg/dL
same,TC,"72 h, time 3 day",92.4 mg/dL
same,TG,"72 h, time 3 day",92.4 mg/dL
same,TP,"72 h, time 3 day",5.7 g/dL
same,gamma-GTP,"72 h, time 3 day",1.2 IU/L
same,TERMINAL_BW,"[…], time 7 day",265.4 g
same,TERMINAL_BW,"[…], time 14 day",305.8 g
same,TERMINAL_BW,"[…], time 28 day",385.4 g
same,APTT,"[…], time 7 day",19.3 s
same,Bas,"[…], time 7 day",0%
same,Eos,"[…], time 7 day",1.2%
same,Fbg,"[…], time 7 day",225.8 mg/dL
same,Hb,"[…], time 7 day",13.9 g/dL
same,Ht,"[…], time 7 day",39.4%
same,Lym,"[…], time 7 day",76.6%
same,MCH,"[…], time 7 day",21.8 pg
same,MCHC,"[…], time 7 day",35.3%
same,MCV,"[…], time 7 day",61.7 fL
same,Mono,"[…], time 7 day",2.4%
same,Neu,"[…], time 7 day",18.4%
same,PT,"[…], time 7 day",12.1 s
same,Plat,"[…], time 7 day",120.4 x10_4/uL
same,RBC,"[…], time 7 day",639 x10_4/ul
same,Ret,"[…], time 7 day",4.9%
same,WBC,"[…], time 7 day",90.8 x10_2/uL
same,APTT,"[…], time 14 day",20.1 s
same,Bas,"[…], time 14 day",0%
same,Eos,"[…], time 14 day",1%
same,Fbg,"[…], time 14 day",238.8 mg/dL
same,Hb,"[…], time 14 day",14.8 g/dL
same,Ht,"[…], time 14 day",42.2%
same,Lym,"[…], time 14 day",75.6%
same,MCH,"[…], time 14 day",20.6 pg
same,MCHC,"[…], time 14 day",35.2%
same,MCV,"[…], time 14 day",58.6 fL
same,Mono,"[…], time 14 day",2.4%
same,Neu,"[…], time 14 day",19.2%
same,PT,"[…], time 14 day",12 s
same,Plat,"[…], time 14 day",115.1 x10_4/uL
same,RBC,"[…], time 14 day",720.6 x10_4/ul
same,Ret,"[…], time 14 day",3.7%
same,WBC,"[…], time 14 day",101.2 x10_2/uL
same,APTT,"[…], time 28 day",20.9 s
same,Bas,"[…], time 28 day",0.4%
same,Eos,"[…], time 28 day",1.4%
same,Fbg,"[…], time 28 day",223.8 mg/dL
same,Hb,"[…], time 28 day",15.6 g/dL
same,Ht,"[…], time 28 day",43.7%
same,Lym,"[…], time 28 day",77.8%
same,MCH,"[…], time 28 day",20 pg
same,MCHC,"[…], time 28 day",35.7%
same,MCV,"[…], time 28 day",56.2 fL
same,Mono,"[…], time 28 day",2.6%
same,Neu,"[…], time 28 day",16.8%
same,PT,"[…], time 28 day",12.4 s
same,Plat,"[…], time 28 day",106.3 x10_4/uL
same,RBC,"[…], time 28 day",779.2 x10_4/ul
same,Ret,"[…], time 28 day",2%
same,WBC,"[…], time 28 day",91.9 x10_2/uL
same,KIDNEY_L,"[…], time 7 day",1.1 g
same,KIDNEY_R,"[…], time 7 day",1.1 g
same,KIDNEY_TOTAL,"[…], time 7 day",2.2 g
same,KIDNEY_L,"[…], time 14 day",1.2 g
same,KIDNEY_R,"[…], time 14 day",1.2 g
same,KIDNEY_TOTAL,"[…], time 14 day",2.4 g
same,KIDNEY_L,"[…], time 28 day",1.5 g
same,KIDNEY_R,"[…], time 28 day",1.4 g
same,KIDNEY_TOTAL,"[…], time 28 day",2.9 g
same,LIVER,"[…], time 7 day",12.5 g
same,LIVER,"[…], time 14 day",13.5 g
same,LIVER,"[…], time 28 day",15.9 g
same,A/G,"[…], time 7 day",1.5
same,ALP,"[…], time 7 day",967.8 IU/L
same,ALT,"[…], time 7 day",31.6 IU/L
same,AST,"[…], time 7 day",63.8 IU/L
same,BUN,"[…], time 7 day",15.4 mg/dL
same,CRE,"[…], time 7 day",0.4 mg/dL
same,Ca,"[…], time 7 day",10.6 mg/dL
same,Cl,"[…], time 7 day",103.8 meq/L
same,DBIL,"[…], time 7 day",0.096 mg/dL
same,GLC,"[…], time 7 day",219.2 mg/dL
same,IP,"[…], time 7 day",7.4 mg/dL
same,K,"[…], time 7 day",3.8 meq/L
same,LDH,"[…], time 7 day",164.8 IU/L
same,Na,"[…], time 7 day",140.8 meq/L
same,PL,"[…], time 7 day",147.4 mg/dL
same,RALB,"[…], time 7 day",3.4 g/dL
same,TBIL,"[…], time 7 day",0.1 mg/dL
same,TC,"[…], time 7 day",73.2 mg/dL
same,TG,"[…], time 7 day",103.6 mg/dL
same,TP,"[…], time 7 day",5.7 g/dL
same,gamma-GTP,"[…], time 7 day",1 IU/L
same,A/G,"[…], time 14 day",1.4
same,ALP,"[…], time 14 day",885.8 IU/L
same,ALT,"[…], time 14 day",38.2 IU/L
same,AST,"[…], time 14 day",64.2 IU/L
same,BUN,"[…], time 14 day",16.2 mg/dL
same,CRE,"[…], time 14 day",0.5 mg/dL
same,Ca,"[…], time 14 day",10.6 mg/dL
same,Cl,"[…], time 14 day",103 meq/L
same,DBIL,"[…], time 14 day",0.088 mg/dL
same,GLC,"[…], time 14 day",205.2 mg/dL
same,IP,"[…], time 14 day",7.2 mg/dL
same,K,"[…], time 14 day",3.9 meq/L
same,LDH,"[…], time 14 day",177 IU/L
same,Na,"[…], time 14 day",141.2 meq/L
same,PL,"[…], time 14 day",140.8 mg/dL
same,RALB,"[…], time 14 day",3.5 g/dL
same,TBIL,"[…], time 14 day",0.2 mg/dL
same,TC,"[…], time 14 day",67.2 mg/dL
same,TG,"[…], time 14 day",124.8 mg/dL
same,TP,"[…], time 14 day",6 g/dL
same,gamma-GTP,"[…], time 14 day",1 IU/L
same,A/G,"[…], time 28 day",1.3
same,ALP,"[…], time 28 day",677.6 IU/L
same,ALT,"[…], time 28 day",31.6 IU/L
same,AST,"[…], time 28 day",61.4 IU/L
same,BUN,"[…], time 28 day",17.2 mg/dL
same,CRE,"[…], time 28 day",0.5 mg/dL
same,Ca,"[…], time 28 day",10.4 mg/dL
same,Cl,"[…], time 28 day",103 meq/L
same,DBIL,"[…], time 28 day",0.092 mg/dL
same,GLC,"[…], time 28 day",214.6 mg/dL
same,IP,"[…], time 28 day",6.6 mg/dL
same,K,"[…], time 28 day",3.9 meq/L
same,LDH,"[…], time 28 day",126.8 IU/L
same,Na,"[…], time 28 day",140.8 meq/L
same,PL,"[…], time 28 day",132.8 mg/dL
same,RALB,"[…], time 28 day",3.4 g/dL
same,TBIL,"[…], time 28 day",0.1 mg/dL
same,TC,"[…], time 28 day",64.2 mg/dL
same,TG,"[…], time 28 day",85.8 mg/dL
same,TP,"[…], time 28 day",6.2 g/dL
same,gamma-GTP,"[…], time 28 day",0.8 IU/L
